Data published in patent publication US11919901B2 (Syndax Pharmaceuticals, Inc., priority 2021, dated 2024).

tested on: MV4-11 cells; assay: Cell proliferation assay MV4;11 (CellTiter-Glo, 72 hours); type: cell-based; conditions: Homo sapiens; MV4;11 leukemia cell line, 72 hours; read-out: MV4; 11 IC50
Summary of the method: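 MV4-11 cells (MLL1-AF4 fusion) exposed 72 h at 37 °C to 8 compound concentrations, final 0.632–2000 nM. Viability by CellTiter-Glo luminescence as % of vehicle RLU; % max inhibition = 100 − viability at top concentration.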

Row | Compound | IC50 [nM]
1 | CC(C)N(C(=O)c1cc(F)ccc1Oc1cncnc1N1CC2(CCN(C[C@@H]3CC[C@@H](NS(C)(=O)=O)CO3)CC2)C1)[C@H]1CCOC1 [Example 173, 5-Fluoro-N-isopropyl-2-((4-(7-(((2S,5R)-5-(methylsulfonamido)tetrahydro-2H-pyran-2-yl)methyl)-2,7-diazaspiro[3.5]nonan-2-yl)pyrimidin-5-yl)oxy)-N-((S)-tetrahydrofuran-3-yl)benzamide] | < 100
2 | CC(C)N(C(=O)c1cc(F)ccc1Oc1cncnc1N1CC2(CCN(C[C@@H]3CC[C@@H](NS(=O)(=O)C(C)C)CO3)CC2)C1)[C@H]1CCOC1 [Example 174, 5-Fluoro-N-isopropyl-2-((4-(7-(((2S,5R)-5-((1-methylethyl)sulfonamido)tetrahydro-2H-pyran-2-yl)methyl)-2,7-diazaspiro[3.5]nonan-2-yl)pyrimidin-5-yl)oxy)-N-((S)-tetrahydrofuran-3-yl)benzamide] | < 100
3 | CCN(CC)S(=O)(=O)N[C@@H]1CC[C@@H](CN2CCC3(CC2)CN(c2ncncc2Oc2ccc(F)cc2C(=O)N(C(C)C)[C@H]2CCOC2)C3)OC1 [Example 175, 2-((4-(7-(((2S,5R)-5-((N,N-Diethylsulfamoyl)amino)tetrahydro-2H-pyran-2-yl)methyl)-2,7-diazaspiro[3.5]nonan-2-yl)pyrimidin-5-yl)oxy)-5-fluoro-N-isopropyl-N-((S)-tetrahydrofuran-3-yl)benzamide] | < 100
4 | CC(C)N(C(=O)c1cc(F)ccc1Oc1cncnc1N1CC2(CCN(C[C@@H]3CC[C@@H](NS(=O)(=O)C4CC4)CO3)CC2)C1)[C@H]1CCOC1 [Example 176, 2-((4-(7-(((2S,5R)-5-(Cyclopropanesulfonamido)tetrahydro-2H-pyran-2-yl)methyl)-2,7-diazaspiro[3.5]nonan-2-yl)pyrimidin-5-yl)oxy)-5-fluoro-N-isopropyl-N-((S)-tetrahydrofuran-3-yl)benzamide] | < 100
5 | CC(C)N(C(=O)c1cc(F)ccc1Oc1cncnc1N1CC2(CCN(C[C@@H]3CC[C@@H](NS(=O)(=O)N(C)C)CO3)CC2)C1)[C@H]1CCOC1 [Example 177, 2-((4-(7-(((2S,5R)-5-((N,N-Dimethylsulfamoyl)amino)tetrahydro-2H-pyran-2-yl)methyl)-2,7-diazaspiro[3.5]nonan-2-yl)pyrimidin-5-yl)oxy)-5-fluoro-N-isopropyl-N-((S)-tetrahydrofuran-3-yl)benzamide] | < 100
6 | CC(C)N(C(=O)c1cc(F)ccc1Oc1cncnc1N1CC2(CCN(C[C@@H]3CC[C@@H](NS(=O)(=O)N4CCCC4)CO3)CC2)C1)[C@H]1CCOC1 [Example 178, 5-Fluoro-N-isopropyl-2-((4-(7-(((2S,5R)-5-(pyrrolidine-1-sulfonamido)tetrahydro-2H-pyran-2-yl)methyl)-2,7-diazaspiro[3.5]nonan-2-yl)pyrimidin-5-yl)oxy)-N-((S)-tetrahydrofuran-3-yl)benzamide] | < 100
7 | CCN(C)S(=O)(=O)N[C@@H]1CC[C@@H](CN2CCC3(CC2)CN(c2ncncc2Oc2ccc(F)cc2C(=O)N(C(C)C)[C@H]2CCOC2)C3)OC1 [Example 179, 2-((4-(7-(((2S,5R)-5-((N-Ethyl-N-methylsulfamoyl)amino)tetrahydro-2H-pyran-2-yl)methyl)-2,7-diazaspiro[3.5]nonan-2-yl)pyrimidin-5-yl)oxy)-5-fluoro-N-isopropyl-N-((S)-tetrahydrofuran-3-yl)benzamide] | < 100
8 | CCNS(=O)(=O)N[C@@H]1CC[C@@H](CN2CCC3(CC2)CN(c2ncncc2Oc2ccc(F)cc2C(=O)N(C(C)C)[C@H]2CCOC2)C3)OC1 [Example 180, 2-((4-(7-(((2S,5R)-5-((N-Ethylsulfamoyl)amino)tetrahydro-2H-pyran-2-yl)methyl)-2,7-diazaspiro[3.5]nonan-2-yl)pyrimidin-5-yl)oxy)-5-fluoro-N-isopropyl-N-((S)-tetrahydrofuran-3-yl)benzamide] | < 100
9 | CC(C)N(CC#N)C(=O)c1cc(F)ccc1Oc1cncnc1N1CC2(CCN(C[C@@H]3CC[C@@H](NS(=O)(=O)N(C)C)CO3)CC2)C1 [Example 181, N-(Cyanomethyl)-2-((4-(7-(((2S,5R)-5-((N,N-dimethylsulfamoyl)amino)tetrahydro-2H-pyran-2-yl)methyl)-2,7-diazaspiro[3.5]nonan-2-yl)pyrimidin-5-yl)oxy)-5-fluoro-N-isopropylbenzamide] | < 100
10 | CC(C)N(CC#N)C(=O)c1cc(F)ccc1Oc1cncnc1N1CC2(CCN(C[C@@H]3CC[C@@H](NS(=O)(=O)N4CCC4)CO3)CC2)C1 [Example 182, 2-((4-(7-(((2S,5R)-5-(Azetidine-1-sulfonamido)tetrahydro-2H-pyran-2-yl)methyl)-2,7-diazaspiro[3.5]nonan-2-yl)pyrimidin-5-yl)oxy)-N-(cyanomethyl)-5-fluoro-N-isopropylbenzamide] | < 100
11 | CC(C)N(CCC#N)C(=O)c1cc(F)ccc1Oc1cncnc1N1CC2(CCN(C[C@@H]3CC[C@@H](NS(=O)(=O)N(C)C)CO3)CC2)C1 [Example 183, N-(2-Cyanoethyl)-2-((4-(7-(((2S,5R)-5-((N,N-dimethylsulfamoyl)amino)tetrahydro-2H-pyran-2-yl)methyl)-2,7-diazaspiro[3.5]nonan-2-yl)pyrimidin-5-yl)oxy)-5-fluoro-N-isopropylbenzamide] | < 100
12 | CC(C)N(CCC#N)C(=O)c1cc(F)ccc1Oc1cncnc1N1CC2(CCN(C[C@@H]3CC[C@@H](NS(=O)(=O)N4CCC4)CO3)CC2)C1 [Example 184, 2-((4-(7-(((2S,5R)-5-(Azetidine-1-sulfonamido)tetrahydro-2H-pyran-2-yl)methyl)-2,7-diazaspiro[3.5]nonan-2-yl)pyrimidin-5-yl)oxy)-N-(2-cyanoethyl)-5-fluoro-N-isopropylbenzamide] | < 100
13 | CCS(=O)(=O)N[C@@H]1CC[C@@H](CN2CCC3(CC2)CN(c2ncnnc2Oc2ccc(F)cc2C(=O)N(CC(F)F)C(C)C)C3)OC1 [Example 185, N-(2,2-Difluoroethyl)-2-((5-(7-(((2S,5R)-5-(ethylsulfonamido)tetrahydro-2H-pyran-2-yl)methyl)-2,7-diazaspiro[3.5]nonan-2-yl)-1,2,4-triazin-6-yl)oxy)-5-fluoro-N-isopropylbenzamide] | < 100
14 | CC(C)N(CC(F)F)C(=O)c1cc(F)ccc1Oc1nncnc1N1CC2(CCN(C[C@@H]3CC[C@@H](NS(=O)(=O)C4CC4)CO3)CC2)C1 [Example 186, 2-((5-(7-(((2S,5R)-5-(Cyclopropanesulfonamido)tetrahydro-2H-pyran-2-yl)methyl)-2,7-diazaspiro[3.5]nonan-2-yl)-1,2,4-triazin-6-yl)oxy)-N-(2,2-difluoroethyl)-5-fluoro-N-isopropylbenzamide] | < 100
15 | CCNS(=O)(=O)N[C@@H]1CC[C@@H](CN2CCC3(CC2)CN(c2ncnnc2Oc2ccc(F)cc2C(=O)N(CC(F)F)C(C)C)C3)OC1 [Example 188, N-(2,2-Difluoroethyl)-2-((5-(7-(((2S,5R)-5-((N-ethylsulfamoyl)amino)tetrahydro-2H-pyran-2-yl)methyl)-2,7-diazaspiro[3.5]nonan-2-yl)-1,2,4-triazin-6-yl)oxy)-5-fluoro-N-isopropylbenzamide] | < 100
16 | CC(C)N(CC(F)F)C(=O)c1cc(F)ccc1Oc1nncnc1N1CC2(CCN(C[C@@H]3CC[C@@H](NS(=O)(=O)N4CCC4)CO3)CC2)C1 [Example 189, 2-((5-(7-(((2S,5R)-5-(Azetidine-1-sulfonamido)tetrahydro-2H-pyran-2-yl)methyl)-2,7-diazaspiro[3.5]nonan-2-yl)-1,2,4-triazin-6-yl)oxy)-N-(2,2-difluoroethyl)-5-fluoro-N-isopropylbenzamide] | < 100
17 | CCS(=O)(=O)N[C@@H]1CC[C@@H](CN2CCC3(CC2)CN(c2ncnnc2Oc2ccc(F)cc2C(=O)N(CC(F)(F)F)C(C)C)C3)OC1 [Example 190, 2-((5-(7-(((2S,5R)-5-(Ethylsulfonamido)tetrahydro-2H-pyran-2-yl)methyl)-2,7-diazaspiro[3.5]nonan-2-yl)-1,2,4-triazin-6-yl)oxy)-5-fluoro-N-isopropyl-N-(2,2,2-trifluoroethyl)benzamide] | < 100
18 | CC(C)N(CC(F)(F)F)C(=O)c1cc(F)ccc1Oc1nncnc1N1CC2(CCN(C[C@@H]3CC[C@@H](NS(=O)(=O)C4CC4)CO3)CC2)C1 [Example 191, 2-((5-(7-(((2S,5R)-5-(Cyclopropanesulfonamido)tetrahydro-2H-pyran-2-yl)methyl)-2,7-diazaspiro[3.5]nonan-2-yl)-1,2,4-triazin-6-yl)oxy)-5-fluoro-N-isopropyl-N-(2,2,2-trifluoroethyl)benzamide] | < 100
19 | CCS(=O)(=O)N[C@@H]1CC[C@@H](CN2CCC3(CC2)CN(c2ncnnc2Oc2ccc(F)cc2C(=O)N(C(C)C)C(C)C)C3)OC1 [Example 195, 2-((5-(7-(((2S,5R)-5-(Ethylsulfonamido)tetrahydro-2H-pyran-2-yl)methyl)-2,7-diazaspiro[3.5]nonan-2-yl)-1,2,4-triazin-6-yl)oxy)-5-fluoro-N,N-diisopropylbenzamide] | < 100
20 | CC(C)N(C(=O)c1cc(F)ccc1Oc1nncnc1N1CC2(CCN(C[C@@H]3CC[C@@H](NS(=O)(=O)C4CC4)CO3)CC2)C1)C(C)C [Example 196, 2-((5-(7-(((2S,5R)-5-(Cyclopropanesulfonamido)tetrahydro-2H-pyran-2-yl)methyl)-2,7-diazaspiro[3.5]nonan-2-yl)-1,2,4-triazin-6-yl)oxy)-5-fluoro-N,N-diisopropylbenzamide] | < 100
21 | CCNS(=O)(=O)N[C@@H]1CC[C@@H](CN2CCC3(CC2)CN(c2ncnnc2Oc2ccc(F)cc2C(=O)N(C(C)C)C(C)C)C3)OC1 [Example 198, 2-((5-(7-(((2S,5R)-5-((N-Ethylsulfamoyl)amino)tetrahydro-2H-pyran-2-yl)methyl)-2,7-diazaspiro[3.5]nonan-2-yl)-1,2,4-triazin-6-yl)oxy)-5-fluoro-N,N-diisopropylbenzamide] | < 100
